From the supplement of paper PMC10307832 come the findings set out here.

What all share (assay): relative viability (nuclei count vs DMSO), 5 days (fraction); higher = more cells survive
Compound in the experiment “Masitinib + Luminespib”: Cc1ccc(NC(=O)c2ccc(CN3CCN(C)CC3)cc2)cc1Nc1nc(-c2cccnc2)cs1 [Masitinib] + CCNC(=O)c1noc(-c2cc(C(C)C)c(O)cc2O)c1-c1ccc(CN2CCOCC2)cc1 [Luminespib] (partner 0.01 µM)
The procedure, abridged:
(§1)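 A single step with final 0.05% Triton X-100, 1% formaldehyde and 1 ug/ml Hoechst fixed the cells and stained nuclei 5 days after treatment. Lung cancer cell lines in 1536-well plates had been treated by pin tool the day after seeding with one drug alone or a fixed anchor-drug dose plus five library-drug doses (not always all listed) in √10 steps, and nuclei were counted on 4× images. Relative viability is the ratio of nuclei in treated wells to nuclei in vehicle wells, taken as the median of duplicate plates.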

Compound in experiment [1]: CC1=CC(=CC=C1)NC2=NC(=CS2)C3=CC=NC=C3 + C[C@@H](Oc1cc(-c2cnn(C3CCNCC3)c2)cnc1N)c1c(Cl)ccc(F)c1Cl [Crizotinib] (partner 1 µM)
The procedure, abridged:
as §1

Compound in the experiment “Masitinib + Dasatinib”: Cc1ccc(NC(=O)c2ccc(CN3CCN(C)CC3)cc2)cc1Nc1nc(-c2cccnc2)cs1 [Masitinib] + Cc1nc(Nc2ncc(C(=O)Nc3c(C)cccc3Cl)s2)cc(N2CCN(CCO)CC2)n1 [Dasatinib] (partner 0.075 µM)
The method, boiled down:
as §1

Compound in the experiment “Masitinib + Navitoclax”: Cc1ccc(NC(=O)c2ccc(CN3CCN(C)CC3)cc2)cc1Nc1nc(-c2cccnc2)cs1 [Masitinib] + CC1(C)CCC(c2ccc(Cl)cc2)=C(CN2CCN(c3ccc(C(=O)NS(=O)(=O)c4ccc(N[C@H](CCN5CCOCC5)CSc5ccccc5)c(S(=O)(=O)C(F)(F)F)c4)cc3)CC2)C1 [Navitoclax] (partner 0.5 µM)
The procedure, abridged:
as §1

Regarding NCI-H3122, the relative viability with Masitinib + Luminespib (first compound 0.01 µM) was determined as 0.109; with Masitinib + Luminespib (first compound 0.03162 µM) it was 0.0826; in the experiment with Masitinib + Luminespib (first compound 0.1 µM) it was 0.0942; with Masitinib + Luminespib (first compound 0.3162 µM), 0.109; with Masitinib + Luminespib (first compound 1 µM), 0.0792; in experiment [1] (first compound 0.08 µM), 0.266. In addition, the relative viability in experiment [1] (first compound 0.253 µM) amounted to 0.31; in experiment [1] (first compound 0.8 µM), 0.334; in experiment [1] (first compound 2.53 µM) it was 0.332; in experiment [1] (first compound 8 µM), 0.47; in the experiment with Masitinib + Dasatinib (first compound 0.01 µM), 0.512; with Masitinib + Dasatinib (first compound 0.03162 µM) it was 0.724. For the same cell line, the relative viability came to 0.61 with Masitinib + Dasatinib (first compound 0.1 µM); 0.615 in the experiment with Masitinib + Dasatinib (first compound 0.3162 µM); 0.916 with Masitinib + Dasatinib (first compound 1 µM); 1.03 in the experiment with Masitinib + Navitoclax (first compound 0.01 µM); 1.04 with Masitinib + Navitoclax (first compound 0.03162 µM); 1.04 with Masitinib + Navitoclax (first compound 0.1 µM). The relative viability with Masitinib + Navitoclax (first compound 0.3162 µM) came to 1.09; in the experiment with Masitinib + Navitoclax (first compound 1 µM) it was 1.04.

As for PC-3 [JPC-3], the relative viability is 0.741 with Masitinib + Luminespib (first compound 0.01 µM); 0.571 with Masitinib + Luminespib (first compound 0.03162 µM); 0.774 with Masitinib + Luminespib (first compound 0.1 µM); 0.783 with Masitinib + Luminespib (first compound 0.3162 µM); 0.677 with Masitinib + Luminespib (first compound 1 µM); 0.875 in experiment [1] (first compound 0.08 µM). For the same cell line, the relative viability in experiment [1] (first compound 0.253 µM) came to 0.913; in experiment [1] (first compound 0.8 µM), 0.852; in experiment [1] (first compound 2.53 µM) it was 0.904; in experiment [1] (first compound 8 µM) it was 0.799; with Masitinib + Dasatinib (first compound 0.01 µM), 0.984; with Masitinib + Dasatinib (first compound 0.03162 µM), 0.839. The relative viability in the experiment with Masitinib + Dasatinib (first compound 0.1 µM) is 0.973; with Masitinib + Dasatinib (first compound 0.3162 µM) it was 0.927; with Masitinib + Dasatinib (first compound 1 µM), 0.954; in the experiment with Masitinib + Navitoclax (first compound 0.01 µM), 0.768; with Masitinib + Navitoclax (first compound 0.03162 µM), 0.682; in the experiment with Masitinib + Navitoclax (first compound 0.1 µM), 0.806. Further, the figures for the relative viability in the experiment with Masitinib + Navitoclax (first compound 0.3162 µM) and with Masitinib + Navitoclax (first compound 1 µM) were 0.659 and 0.787, respectively.

In the case of PC-14, the relative viability with Masitinib + Luminespib (first compound 0.01 µM) is 0.15; in the experiment with Masitinib + Luminespib (first compound 0.03162 µM) it was 0.222; with Masitinib + Luminespib (first compound 0.1 µM), 0.246; with Masitinib + Luminespib (first compound 0.3162 µM), 0.151; with Masitinib + Luminespib (first compound 1 µM) it was 0.196; in experiment [1] (first compound 0.08 µM), 0.87. The relative viability in experiment [1] (first compound 0.253 µM) came out at 0.881; in experiment [1] (first compound 0.8 µM), 0.821; in experiment [1] (first compound 2.53 µM), 0.951; in experiment [1] (first compound 8 µM), 0.695; with Masitinib + Dasatinib (first compound 0.01 µM), 0.266; with Masitinib + Dasatinib (first compound 0.03162 µM), 0.241. Further, the relative viability with Masitinib + Dasatinib (first compound 0.1 µM) stood at 0.28; with Masitinib + Dasatinib (first compound 0.3162 µM), 0.181; with Masitinib + Dasatinib (first compound 1 µM) it was 0.217; with Masitinib + Navitoclax (first compound 0.01 µM), 1.05; in the experiment with Masitinib + Navitoclax (first compound 0.03162 µM) it was 0.89; with Masitinib + Navitoclax (first compound 0.1 µM), 0.991. The relative viability in the experiment with Masitinib + Navitoclax (first compound 0.3162 µM) amounted to 1.04; with Masitinib + Navitoclax (first compound 1 µM), 0.937.

RERF-LC-KJ: the relative viability in the experiment with Masitinib + Luminespib (first compound 0.01 µM) came to 1.41; with Masitinib + Luminespib (first compound 0.03162 µM) it was 1.15; with Masitinib + Luminespib (first compound 0.1 µM) it was 1.42; with Masitinib + Luminespib (first compound 0.3162 µM), 1.23; in the experiment with Masitinib + Luminespib (first compound 1 µM), 1.27; in experiment [1] (first compound 0.08 µM) it was 0.741. For the same cell line, the relative viability in experiment [1] (first compound 0.253 µM) amounted to 0.705; in experiment [1] (first compound 0.8 µM) it was 0.556; in experiment [1] (first compound 2.53 µM), 0.59; in experiment [1] (first compound 8 µM) it was 0.512; with Masitinib + Dasatinib (first compound 0.01 µM) it was 0.881; with Masitinib + Dasatinib (first compound 0.03162 µM), 0.806. Moreover, the relative viability with Masitinib + Dasatinib (first compound 0.1 µM) came to 0.975; in the experiment with Masitinib + Dasatinib (first compound 0.3162 µM), 0.667; in the experiment with Masitinib + Dasatinib (first compound 1 µM), 0.702; with Masitinib + Navitoclax (first compound 0.01 µM), 0.986; in the experiment with Masitinib + Navitoclax (first compound 0.1 µM) it was 1.07; with Masitinib + Navitoclax (first compound 0.3162 µM), 0.873. The relative viability with Masitinib + Navitoclax (first compound 1 µM) amounted to 0.541.

With SK-LU-1, the relative viability in the experiment with Masitinib + Luminespib (first compound 0.01 µM) turned out to be 0.208; with Masitinib + Luminespib (first compound 0.03162 µM) it was 0.195; in the experiment with Masitinib + Luminespib (first compound 0.1 µM) it was 0.2; with Masitinib + Luminespib (first compound 0.3162 µM), 0.221; in the experiment with Masitinib + Luminespib (first compound 1 µM), 0.193; in experiment [1] (first compound 0.08 µM), 0.751. Also, the relative viability was 1 in experiment [1] (first compound 0.253 µM); 0.636 in experiment [1] (first compound 0.8 µM); 0.912 in experiment [1] (first compound 2.53 µM); 0.938 in experiment [1] (first compound 8 µM); 0.157 with Masitinib + Dasatinib (first compound 0.01 µM); 0.202 with Masitinib + Dasatinib (first compound 0.03162 µM). Further, the relative viability was 0.174 with Masitinib + Dasatinib (first compound 0.1 µM); 0.195 in the experiment with Masitinib + Dasatinib (first compound 0.3162 µM); 0.18 in the experiment with Masitinib + Dasatinib (first compound 1 µM); 0.927 with Masitinib + Navitoclax (first compound 0.01 µM); 1.05 with Masitinib + Navitoclax (first compound 0.03162 µM); 1.04 with Masitinib + Navitoclax (first compound 0.1 µM). Further, the relative viability with Masitinib + Navitoclax (first compound 0.3162 µM) was determined as 1; with Masitinib + Navitoclax (first compound 1 µM), 0.869.

For SK-MES-1, the relative viability worked out at 0.544 in the experiment with Masitinib + Luminespib (first compound 0.01 µM); 0.776 with Masitinib + Luminespib (first compound 0.03162 µM); 0.992 in the experiment with Masitinib + Luminespib (first compound 0.1 µM); 0.707 in the experiment with Masitinib + Luminespib (first compound 0.3162 µM); 0.686 with Masitinib + Luminespib (first compound 1 µM); 0.79 in experiment [1] (first compound 0.08 µM). Besides, the relative viability in experiment [1] (first compound 0.253 µM) came out at 0.781; in experiment [1] (first compound 0.8 µM) it was 0.815; in experiment [1] (first compound 2.53 µM), 0.842; in experiment [1] (first compound 8 µM), 0.853; with Masitinib + Dasatinib (first compound 0.01 µM), 0.319; with Masitinib + Dasatinib (first compound 0.03162 µM) it was 0.359. Also, the relative viability came out at 0.392 with Masitinib + Dasatinib (first compound 0.1 µM); 0.286 with Masitinib + Dasatinib (first compound 0.3162 µM); 0.335 in the experiment with Masitinib + Dasatinib (first compound 1 µM); 1.29 in the experiment with Masitinib + Navitoclax (first compound 0.01 µM); 1.23 with Masitinib + Navitoclax (first compound 0.03162 µM); 1.24 in the experiment with Masitinib + Navitoclax (first compound 0.1 µM). Moreover, the relative viability with Masitinib + Navitoclax (first compound 0.3162 µM) amounted to 1.17; in the experiment with Masitinib + Navitoclax (first compound 1 µM), 0.99.

As to SW 1573, the relative viability with Masitinib + Luminespib (first compound 0.01 µM) worked out at 0.172; with Masitinib + Luminespib (first compound 0.03162 µM) it was 0.231; in the experiment with Masitinib + Luminespib (first compound 0.1 µM), 0.214; with Masitinib + Luminespib (first compound 0.3162 µM), 0.261; with Masitinib + Luminespib (first compound 1 µM), 0.302; in experiment [1] (first compound 0.08 µM), 0.671. For the same cell line, the relative viability turned out to be 0.77 in experiment [1] (first compound 0.253 µM); 0.864 in experiment [1] (first compound 0.8 µM); 1.01 in experiment [1] (first compound 2.53 µM); 0.783 in experiment [1] (first compound 8 µM); 0.452 with Masitinib + Dasatinib (first compound 0.01 µM); 0.463 in the experiment with Masitinib + Dasatinib (first compound 0.03162 µM). Further, the relative viability with Masitinib + Dasatinib (first compound 0.1 µM) is 0.526; in the experiment with Masitinib + Dasatinib (first compound 0.3162 µM), 0.52; with Masitinib + Dasatinib (first compound 1 µM), 0.476; with Masitinib + Navitoclax (first compound 0.01 µM), 0.975; with Masitinib + Navitoclax (first compound 0.03162 µM) it was 1.05; with Masitinib + Navitoclax (first compound 0.1 µM), 1.09. Besides, the relative viability in the experiment with Masitinib + Navitoclax (first compound 0.3162 µM) turned out to be 1.19; with Masitinib + Navitoclax (first compound 1 µM) it was 0.972.
